Measurements published in patent publication US20250295639A1, “METHODS FOR TREATING HEART DISEASES” (Cytokinetics, Incorporated, priority 2024, published 2025).

System: patients with symptomatic oHCM
Test: SEQUOIA-HCM: cardiopulmonary exercise testing (CPET), incl. by baseline beta blocker use
Type: in vivo, human
Description: The primary objective of this trial was to evaluate the effect of aficamten on exercise capacity in patients with symptomatic oHCM. The indicated endpoint was a change in peak oxygen uptake (pVO2) by cardiopulmonary exercise testing (CPET) from baseline to Week 24. A further secondary objective was to evaluate the effect of aficamten on exercise capacity, as determined by change in total workload during CPET from baseline to Week 24. A further exploratory objective of this trial was to evaluate the effect of aficamten on other CPET parameters, as determined by changes from baseline to Week 24 in: (1) ventilator efficiency (VE/VCO2 slope); (2) circulatory power (VO2× systolic BP); and (3) ventilator anaerobic threshold (VAT). Cardiopulmonary Exercise Testing (CPET). All patients underwent CPET with gas-exchange analysis and the methodology will be standardized across all participating sites, as described in the CPET manual. Testing included continuous ECG monitoring by trained personnel and was performed in an area that was equipped for cardiopulmonary resuscitation. Treadmill was the preferred modality for exercise testing. […] Exercise protocols for both modalities were provided in the CPET manual. Patients had to use the same testing modality for all exercise tests during the trial. Whenever possible, CPET was administered by the same trial personnel using the same equipment and performed after the other trial procedures on that visit day (including echocardiogram, KCCQ, EQ-5D-5L, CGI, PGI-C, NYHA class, SAQ-7, vital signs, ECG, blood sampling, IP administration). Patients naïve to exercise protocols were familiarized with the technique during screening. All CPET testing was symptom-limited and patients were strongly encouraged to achieve maximal exertion and an RER ≥1.05. The reason(s) for termination of sub-maximal exercise tests were documented. A test was identified as being maximal effort if the RER is ≥1.05. The Week 24 CPET was performed at approximately the same time of day (eg, morning, mid-day, afternoon) as the baseline CPET at screening, at a consistent time after the last dose of beta blocker and IP. Whenever possible, patients performed exercise testing between three and ten hours after taking beta blocking agents. CPET End Points. We looked at whether aficamten would improve a novel measure of integrated exercise performance that combines complementary measures previously independently related to oHCM prognosis, and that incorporates both submaximal and maximal exercise capacity. A primary outcome was the change from baseline to week 24 in integrated exercise performance, defined as the 2-component Z-score of pVO2 and ventilatory efficiency (VE/VCO2 slope). Response rates for achieving clinically meaningful thresholds for change in pVO2 and correlations with clinical measures of treatment effect (health status, echocardiographic, cardiac biomarkers) were also assessed. The primary analysis was the change from baseline to Week 24 in integrated exercise performance, normalized to a composite of Z-scores for pVO2 and VE/VCO2 slope to capture physiologic responses to maximal and submaximal exercise. The Z-score was derived by reversing the directionality of VE/VCO2 slope such that increases in both Z-score components indicate benefit and equal weights were used for each Z-score component. Secondary end points included assessments for changes from baseline to week 24 in CPET-derived measures during 2 phases of exercise performance: (1) peak exercise (pVO2, peak workload, peak metabolic equivalents [METS], peak circulatory power [VO2× systolic blood pressure], exercise duration, peak respiratory exchange ratio [RER], heart rate reserve, peak heart rate, O2 pulse at peak exercise, proportionate pulse pressure); and (2) during submaximal exercise (pre-anaerobic threshold VE/VCO2 slope, VE/VCO2 slope throughout exercise, ventilatory power, ventilatory anaerobic threshold, and aerobic efficiency). Beta Blocker Co-administration. […]

[1] = Aficamten arm, change baseline to week 24
[2] = Baseline Beta Blocker Use: No, Baseline
[3] = Baseline Beta Blocker Use: No, Week 24

CCc1nc(-c2ccc3c(c2)CC[C@H]3NC(=O)c2cnn(C)c2)no1 [aficamten, (R)—N-(5-(5-ethyl-1,2,4-oxadiazol-3-yl)-2,3-dihydro-1H-inden-1-yl)-1-methyl-1H-pyrazole-4-carboxamide]
Aerobic efficiency (Aficamten arm, Week 24): 8.6 mL/min/watt
Exercise duration (Aficamten arm, Week 24): 12.4 min
Heart rate reserve (Aficamten arm, Week 24): 66
Integrated 2 component Z-score metric (Aficamten arm, Week 24): 0.16
Peak circulatory power (Aficamten arm, Week 24): 3550 mmHg*mL/min/kg
Peak heart rate (Aficamten arm, Week 24): 135 beats/min
Peak respiratory exchange ratio (Aficamten arm, Week 24): 1.20
Peak workload (Aficamten arm, Week 24): 134 watt
Proportionate pulse pressure (peak) (Aficamten arm, Week 24): 0.51
Proportionate pulse pressure (rest) (Aficamten arm, Week 24): 0.37
Ventilatory anaerobic threshold (Aficamten arm, Week 24): 958 mL
Ventilatory efficiency pre-anaerobic threshold (VE/VCO2 slope) (Aficamten arm, Week 24): 27.4
Ventilatory efficiency throughout exercise (VE/VCO2 slope) (Aficamten arm, Week 24): 30.9
Ventilatory power (Aficamten arm, Week 24): 5.9 mmHg
pVO2 (Aficamten arm, Week 24): 20.2 mL/kg/min
Aerobic efficiency, Abs. diff. [1]: 0.3 mL/min/watt
Exercise duration, Abs. diff. [1]: 1.2 min
Heart rate reserve, Abs. diff. [1]: 7
Integrated 2 component Z-score metric, Abs. diff. [1]: +0.17±0.51
O2 pulse at peak exercise, Abs. diff. [1]: 0.00 mL/beat
Peak circulatory power, Abs. diff. [1]: 537 mmHg*mL/min/kg
Peak heart rate, Abs. diff. [1]: 8 beats/min
Peak respiratory exchange ratio, Abs. diff. [1]: 0.01
Peak workload, Abs. diff. [1]: 14 watt
Proportionate pulse pressure (peak), Abs. diff. [1]: 0.02
Proportionate pulse pressure (rest), Abs. diff. [1]: −0.02
Ventilatory anaerobic threshold, Abs. diff. [1]: 60 mL
Ventilatory efficiency pre-anaerobic threshold (VE/VCO2 slope), Abs. diff. [1]: −1.9
Ventilatory efficiency throughout exercise (VE/VCO2 slope), Abs. diff. [1]: −2.2
Ventilatory power, Abs. diff. [1]: 0.8 mmHg
pVO2, Abs. diff. [1]: 1.8 mL/kg/min
Integrated 2 component Z-score metric, Abs. diff. (Aficamten arm, change baseline to week 24, listed as Aficamten): 0.17
patients with Any Deterioration (small/moderate/large) in pVO2 (Aficamten, 24 weeks): (26.1%)
patients with Any Deterioration (small/moderate/large) in pVO2, number (Aficamten, 24 weeks): 37
patients with Any Improvement (small/moderate/large) in pVO2 (Aficamten, 24 weeks): (73.9%)
patients with Any Improvement (small/moderate/large) in pVO2, number (Aficamten, 24 weeks): 105
patients with Large Improvement in pVO2 (≥3.0 mL/kg/min) (Aficamten, 24 weeks): 32%
patients with Large Improvement in pVO2 (≥3.0 mL/kg/min), number (Aficamten, 24 weeks): 46
patients with Moderate/Large Improvement in pVO2 (≥1.5 mL/kg/min) (Aficamten, 24 weeks): (52.8%)
patients with Moderate/Large Improvement in pVO2 (≥1.5 mL/kg/min), number (Aficamten, 24 weeks): 75
patients with Large Improvement in pVO2 (≥3.0 mL/kg/min) (Aficamten, 24 weeks, listed as Aficamten): (32.4%)
Change in Exercise Duration on CPET from Baseline to Week 24, LS Mean (SE) (Baseline Beta Blocker Use: No): 1.2 (0.26) minutes
Change in Exercise Duration on CPET from Baseline to Week 24, LS Mean Diff vs. Placebo (SE) (Baseline Beta Blocker Use: No): 1.1 (0.38) minutes
Change in Exercise Duration on CPET from Baseline to Week 24, Mean (SD) (Baseline Beta Blocker Use: No): 1.3 (2.34) minutes
Change in Exercise Duration on CPET from Baseline to Week 24, Median (Baseline Beta Blocker Use: No): 1.1 min
Change in peak METs from Baseline to Week 24, LS Mean (SE) (Baseline Beta Blocker Use: No): 0.62 (0.113) METs
Change in peak METs from Baseline to Week 24, LS Mean Diff vs. Placebo (SE) (Baseline Beta Blocker Use: No): 0.55 (0.162) METs
Change in peak METs from Baseline to Week 24, Mean (SD) (Baseline Beta Blocker Use: No): 0.65 (1.029) METs
Change in peak METs from Baseline to Week 24, Median (Baseline Beta Blocker Use: No): 0.47 METs
Exercise Duration on CPET, Baseline, Mean (SD) [2]: 11.0 (3.52) minutes
Exercise Duration on CPET, Baseline, Median [2]: 10.3 min
peak METs (pVO2/3.5 (mL/kg/min)) on CPET, Baseline, Mean (SD) [2]: 5.27 (1.314) METs
peak METs (pVO2/3.5 (mL/kg/min)) on CPET, Baseline, Median [2]: 5.11 METs
Exercise Duration on CPET, Week 24, Mean (SD) [3]: 12.2 (4.39) minutes
Exercise Duration on CPET, Week 24, Median [3]: 11.3 min
peak METs (pVO2/3.5 (mL/kg/min)) on CPET, Week 24, Mean (SD) [3]: 5.89 (1.481) METs
